{
  "source": "paper PMC10058894",
  "about": "“Bioactive C21 Steroidal Glycosides from Euphorbia kansui Promoted HepG2 Cell Apoptosis via the Degradation of ATP1A1 and Inhibited Macrophage Polarization under Co-Cultivation” (Molecules, 2023)",
  "key": {"ATP1A1 [1]": {"target": "T1, ATP1A1 (Homo sapiens, UniProt P05023)", "assay": "Western blot of ATP1A1 in Huh-7 cells", "type": "cell-based", "parameters": "endogenous in cells", "source_text": "(§1) 2. The anti-proliferation of compound 5 on Huh-7 cells\n(§2) We tested another hepatoma cell line (Huh-7) to validate effect of compound 5. L02 (normal hepatocytes), HepG2 and Hub-7 cells were used to discuss the effect of 5. […]\n(§3) of 5 on Huh-7 cell was (24.49±[…]) μM (Table S1). The morphology and apoptosis of the cells by reversed microscope and flow cytometry, respectively.\n(§4) Second, the expression and phosphorylation of ATP1A1 were detected by Western blot analysis in L02, HepG2 and Huh-7 cells. Compared with L02 group, the expression of ATP1A1 was higher in HepG2 and Huh-7 cells, but there was no significant difference in the phosphorylation of ATP1A1 (Figure […]\n(§5) At last, the effect of 5 on the expression and the phosphorylation of ATP1A1 in Huh-7 cells was […]\n(§6) the phosphorylation of ATP1A1. The result was consistent with that observed in HepG2 cells (Figure […]\n(§7) Table S1 Cell viability of Huh-7 cell treated by compound 5\n(§8) Figure S2 Compound 5 inhibited the proliferation and the level of ATP1A1 protein in Huh-7 cells L5, low concentration of 5 (12.5 μmol-1 ); H5, high concentration of 5 (25 μmol-1). […] (B) Image of cell apoptosis in Huh-7 cells was detected by flow cytometry. The cells were double stained with Annexin V and PI. […] Data are expressed as the mean ± standard deviation (n=3). *p<0.05, **p<0.01, ***p<0.001 vs. the control group. […]"}, "Huh-7 cells": {"test_system": "Huh-7 cells", "assay": "Apoptosis of Huh-7 cells by flow cytometry (Annexin V/PI)", "type": "cell-based", "source_text": "as §1, §2, §3, §4, §5, §6, §7, §8"}, "[2]": {"test_system": "NO production of LPS-stimulated RAW264.7 cells", "assay": "Nitric oxide production in LPS-stimulated RAW264.7 cells (Griess)", "type": "cell-based", "procedure": "RAW264.7 cells (8 × 10^4 cells/well) were incubated in 96T wells with DMEM for 24 h and then treated with compounds and LPS (1 μg/mL) for 24 h; this included the control group and LPS group. Then, the cell supernatant was collected for nitric oxide production assay. Next, 100 uL/well PBS was added to 96T wells, then 0.5% MTT (Sigma, Saint Louis, MO, USA) was added to 20 μL/well for 3.5 h. DMSO (150 μL/well) was added to dissolve the purple formazan. Cells were agitated for 15 min at room temperature, and the absorbance at 490 nm was recorded by SpetraMax M2 (Molecular Devices, San Jose, CA, USA). The NO inhibition rate (%) = (ODLPS group − ODcompound group)/(ODLPS group-ODcontrol group) × 100%. The IC50 value refers to the inhibitory of nitric oxide production of LPS-stimulated RAW264.7 cells. Then, 70 uL of each cell supernatant sample was added into a new 96T plate, and Griess A and Griess B were added separately. Then, the absorbance value at 540 nm was detected and then brought into the standard curve to assay the concentration of NO. The cell survival rate (%) = (ODcompound group − ODblank group)/(ODcontrol group − ODblank group) × 100%. The half concentration of the cell death (CC50) value refers to the concentration of compound 5 when 50% of RAW264.7 cells die. The iNOS inhibitor ([…], L-NMMA) was selected as the positive control. The levels of cytokines (IL-1β, IFN-γ, IL-10, TNF-α, and IL-6) in the cell supernatant were determined using an ELISA kit (Novus Biologicals, Shanghai, China, Lot: 834472, 770118, 772051, 486956, 602865). When the process was conducted according to the manufacturer’s instructions, the absorbance was read at 450 nm/570 nm in a SpectraMax 340PC microplate spectrophotometer (Molecular Devices, San Jose, CA, USA)."}, "Na+-K+-ATPase": {"target": "T2, Na+-K+-ATPase (Homo sapiens, UniProt P05023)", "T2 construct": "endogenous in cells; host or cells: HepG2 (sonicated lysate supernatant)", "assay": "Na+-K+-ATPase enzyme activity detection kit", "type": "biochemical", "details": "HepG2 cells", "procedure": "HepG2 cells were collected in centrifuge tubes, and every 5 million cells were added to 1 mL reagent to sonicate the cells (power 20%, ultrasound 3S, interval 10 s, repeat 30 times). Then, the samples were centrifuged at 8000 rpm/min for 10 min at 4 °C. The supernatant was then collected and placed on ice for testing. The operation was performed according to the instructions of the Na^+-K^+-ATPase enzyme activity detection kit (Solarbio, Beijing, China)."}, "[3]": {"test_system": "Bax, cleaved caspase 3, cleaved caspase 8, Bcl-2, LC3-B, p62, AKT/mTOR in HepG2 cells", "assay": "Western blot of apoptosis- and autophagy-related proteins in HepG2 cells", "type": "cell-based", "details": "HepG2, 25 μmol∙L−1, 24 h", "procedure": "Protein samples were prepared using a RIPA lysis buffer. The concentration of the protein was analyzed using a nucleic acid and protein microanalyzer (Molecular Devices, San Jose, CA, USA). SDS–PAGE was performed to separate the proteins, which were then electrotransferred onto a PVDF membrane. The membrane was incubated with antibodies at 4 °C overnight. Next, the membrane was washed and incubated with an HRP-conjugated secondary antibody (Beyotime, BeiJing, China). Finally, signals were detected by the ECL method (Beyotime, BeiJing, China) and analyzed using ImageJ software."}, "ATP1A1 [4]": {"target": "T1, ATP1A1", "assay": "CETSA binding assay", "parameters": "we focused on the regulatory effect of 5 on ATP1A1 in HepG2 cells; endogenous in cells; host or cells: HepG2", "details": "50 μmoL−1, western blot", "procedure": "Figure 4 Compound 5 promoted the endocytosis and degradation of ATP1A1. (A) HepG2 cells were treated with 12.5 μmol∙L^−1 or 25 μmol∙L^−1 5 for 48 h, and the lysosomal co-localization assay was performed with a confocal laser. (B) Cells exposed to 25 μmol∙L^−1 5 for 12 h or 24 h were detected by fluorescence staining. (C) 5 is depicted in red, and the chains of Na^+, K^+-ATPase α/β/γ are represented by light blue, cyan-blue, and magenta, respectively. The crystallography, atomic coordinates, and structure factors have been deposited in the Protein Data Bank, www.pdb.org (accessed on 1 February 2023) (PDB ID code 3KDP). (D) The CETSA binding assay of ATP1A1 and β-actin in the presence or absence of 5 (50 μmoL^−1) at different temperatures was detected by western blot. The temperature-dependent melting curves and the apparent aggregation temperature were calculated by nonlinear regression. Values represent the mean ± SEM (N = 3 replicates)."}},
  "data": [
    {"smiles": "C[C@H](O)[C@]1(O)CC[C@@]2(O)[C@]1(C)[C@H](OC(=O)/C=C/c1ccccc1)C[C@@H]1[C@@]3(C)CC[C@H](O[C@H]4C[C@H](O)[C@H](O)[C@@H](C)O4)CC3=CC[C@]12O", "note": "[Compound 5, Cynsaccatol L]", "values": [
      {"measurement": "level of ATP1A1 in Huh-7", "setting": "ATP1A1 [1]", "result": "reduced"},
      {"measurement": "apoptosis of Huh-7 cells", "setting": "Huh-7 cells", "result": "induce apoptosis of Huh-7 cells"},
      {"measurement": "inhibitory activity on NO production relative to the positive control drug (L-NMMA)", "setting": "[2]; LPS-stimulated RAW264.7 cells", "result": 1000, "unit": "times"},
      {"measurement": "IC50", "setting": "[2]; Mus musculus, LPS (1 μg/mL)-stimulated RAW264.7 cells, 24 h, read-out: RAW264.7 IC50 (inhibition of nitric oxide production)", "result": "20 ± 20", "unit": "nM"},
      {"measurement": "activity of NAK (Na+-K+-ATPase)", "setting": "Na+-K+-ATPase", "result": "inhibited"},
      {"measurement": "Bax, cleaved caspase 3 and cleaved caspase 8 protein expression", "setting": "[3]", "result": "increased"},
      {"measurement": "Bcl-2 protein expression", "setting": "[3]", "result": "decreased"},
      {"measurement": "expression of LC3-B and p62", "setting": "[3]", "result": "upregulating"},
      {"measurement": "phosphorylation of AKT and mTOR", "setting": "[3]", "result": "inhibited"},
      {"measurement": "denaturation temperature of ATP1A1 (CETSA)", "setting": "ATP1A1 [4]", "result": "higher than that of the control group"}
    ]}
  ]
}
